Earlier results as cited in patent publication US20060105961A1 (Pharmacia Corporation, priority 2002, published 2006).

Tested on: tumor
Conditions: mice after radiotherapy

## COc1ccc2c(c1)c(CC(=O)O)c(C)n2C(=O)c1ccc(Cl)cc1 [indomethacin]
  tumor cure rate: increases the tumor cure rate
  tumor growth delay: prolongs tumor growth delay
